Columns and labels:
[1] = Dissolution test of drug/CaCO3 hybrid particles against raw drug crystals, flow-through UV-Vis; assay type: physicochemical; settings: drug in CaCO3 hybrid particles; 10 mM SDS, pH 1.5 (HCl), 37° C., sink conditions, monitored at 290 nm
Method: In this example, the dissolution rates of the particles were determined, and compared to compared with raw, micron-sized drug crystals.
During the dissolution experiments, for convenience, dissolution media was placed in a dissolution chamber which is typically used for pressure dialysis; no pressure was applied for the measurements described here. The vessel used in these experiments contained a built-in stir bar and the dissolution media was stirred at a rate of approximately one revolution per second. Dissolution media was drawn from the bottom of the vessel, through a 0.1 micron PTFE filter. The media vessel was connected to a flow-through UV-Vis spectrophotometer cell via tubing and the liquid was driven using a peristaltic pump. A flow rate of 8 mL per second was used. The output of the flow-through cell was connected back to the dissolution chamber, so that the flow formed a closed loop; in this manner the volume of the dissolution media was conserved.
All water used was distilled and de-ionized. […] The raw drug powder was not ground. […] All dissolution media was kept at 37° C.

[2] = no UV-vis signal detectable in pure water or acidic water with added HCl
Method: All water used was distilled and de-ionized. These drugs were monitored at a wavelength of 290 nm. Templates were prepared for dissolution testing by grinding pellets in a mortar and pestle into a fine powder. The raw drug powder was not ground. All tests were performed under sink conditions, where the total amount of drug added is less than one third of the saturation concentration. All dissolution media was kept at 37° C.

Structure (SMILES)	dissolution rate when incorporated into a hybrid structure, compared with raw, micron-sized drug crystals [1]	solubility in water [2]
Clc1ccccc1C(c1ccccc1)(c1ccccc1)n1ccnc1 [chlotrimazole]	enhanced dissolution rates	poorly soluble in water
C[C@]12CC[C@@H]3c4ccc(O)cc4CC[C@H]3[C@@H]1CC[C@@H]2O [estradiol, 17-beta estradiol]	enhanced dissolution rates	–

From patent US20120141589A1, “PARTICLES FOR DRUG DELIVERY AND OTHER APPLICATIONS” (BASF SE, priority 2010, published 2012)
